Test results: patent US20090054403A1, “Treatment of Post-Traumatic Stress Disorder” (priority 2007, published 2009)
“Also recorded” adds a separate entry of the source.

Tests used:
[1] = tested on: dopamine/norepinephrine ratio; experiment: Dose response of tissue dopamine/norepinephrine ratio 6 hours after a single oral dose; assay type: in vivo, Sprague-Dawley rats
mice = experiment: Acute toxicity study, single oral doses; assay type: in vivo; details: single oral doses of 250, 1000, or 2500 mg/kg
Procedure: Dose selection was based on an acute toxicity study in which mice were administered single oral doses of 250, 1000, or 2500 mg/kg of Nepicastat.

[2] = tested on: mean arterial pressure and heart rate; experiment: Hemodynamic study in conscious, restrained SHR; assay type: in vivo, spontaneously hypertensive rats (SHR)
Procedure: FIG. 13: Effects of orally administered 2a on mean arterial pressure in conscious, restrained spontaneously hypertensive rats (SHR). SHR were lightly anesthetized with ether and instrumented for measurement of arterial pressure and drug administration. The animals were placed in restrainers and allowed to recover for 30-40 minutes. […] All data are expressed as mean±standard error of mean. n=6-8 per group. […] IR spectra were recorded on a Nicolet SPC FT-IR spectrometer. UV spectra were recorded on a Varian Cary 3 UV-Visible spectrometer, Leeman Labs Inc. Optical rotations were measured in a Perkin-Elmer Model 141 polarimeter. […] Hemodynamic study in SHR. Male SHR (15-16 week old) were used in the study. The animals were lightly anesthetized with ether and the left femoral artery and vein were catheterized for measurement of blood pressure and drug administration, respectively. The animals were placed in restrainers and allowed to recover for 30-40 min. […] The animals were then anesthetized with pentobarbital, placed on a heating pad (37° C.) and ventilated with a Harvard rodent ventilator. After administration of atropine (1 mg/kg, iv) and tubocurarine (1 mg/kg, iv), the animals were pithed through the orbit of the eye with a stainless steel rod. The […] rod was stimulated electrically with 1 ms pulses of 80V at different frequencies (0.15, 0.45, 1.5, 5, 15 Hz) to obtain frequency-pressor response curves.

[3] = tested on: mean arterial pressure, renal blood flow; experiment: Arterial pressure and renal function in anesthetized SHR after iv dosing; assay type: in vivo; details: 3.0 mg/kg i.v.
parkinsonian symptoms = experiment: Parkinsonian clinical rating scale (CRS) in MPTP-lesioned monkeys; assay type: in vivo, squirrel monkeys (Saimiri sciureus); details: hydrochloride
Procedure: A total of 24 squirrel monkeys (Saimiri sciureus), fourteen females and ten males were used in this study. The twenty-four animals were randomly assigned to one of four treatment groups, with 6 animals per group. The groups consisted of the following (1) group A: placebo (2) group B: 1 mg/kg/day; (3) group C: 4 mg/kg/day; and (4) group D: 10 mg/kg/day. In Group B, one animal died acutely following MPTP-lesioning, and was not replaced.
Animals were lesioned by the administration of MPTP at a concentration of 2.0 mg/kg (free-base) via subcutaneous injection to achieve a parkinsonian state (see FIGS. 151-156). A post-MPTP lesioning behavioral assessment was carried out 2 to 4 weeks after the last MPTP-Iesioning. Locomotor activity was monitored by IRAM in 60-minute sessions for 3 to 5 days. Clinical behavior (CAS) was assessed by one to three individuals rating over a period of 3 to 5 days.
Animals were tested for response to L-Dopa and the efficacy of drug nepicastat. Testing was carried out 4 to 12 weeks after the last MPTP dose. Twenty-tour squirrel monkeys were randomly assigned to 4 groups; Group A (6 animals) received placebo (water) treatment; Group B (5 animals) received drug nepicastat at 1 mg/kg/day (0.5 mg/kg twice daily); Group C (6 animals) received 4 mg/kg/day (2 mg/kg twice daily); and Group D (6 animals) received 10 mg/kg/day (5 mg/kg twice daily).
L-Dopa was administered at a concentration of either 2.5, 5, or 7.5 mg/kg by oral gavage twice daily (at 10 am and 2 pm) for 7 consecutive days. Behavior was determined by IRAM and CRS. Clinical rating was carried out 60 to 90 minutes following the 10 am morning dose on the last 4 days of treatment. Raters (one to three individuals) were blinded to the different treatment groups. IRAM assessment were preformed for 90 minutes immediately following drug administration at 2 pm on the last 2 to 5 days of drug treatment. There was a minimum 2 day washout period between each treatment dose.
Drug nepicastat or water (as placebo) was administered for 12 days following a minimum 2 day washout after L-Dopa dosing. Drug was administered twice daily at 10 am and 2 pm by oral gavage. Behavior was rated by IRAM and CRS. The CRS was conducted in the morning, 60 to 90 minutes after the 10 am dose of nepicastat on the last 5 days of drug treatment. Raters (one to three individuals) were blinded to the different treatment groups. IRAM assessments were preformed for 90 minutes immediately following drug administration at 2 pm on the last 5 days of drug treatment.
Eight parkinsonian features were rated in each animal and the total score was derived from the sum of these eight features. […]

blood pressure = experiment: Blood pressure in conscious, restrained normotensive rats; assay type: in vivo, Wistar-Kyoto rats; details: 10 mg/kg, 4 hours after dosing

## Cl.NCc1c[nH]c(=S)n1[C@H]1CCc2c(F)cc(F)cc2C1 [nepicastat, (S)-5-Aminomethyl-1-(5,7-difluoro-1,2,3,4-tetrahydronaphth-2-yl)-2,3-dihydro-2-thioxo-1H-imidazole hydrochloride]
[1]
  dose with significant increase in dopamine/norepinephrine ratio, left ventricle: 1.0 mg/kg
  dose with significant increase in dopamine/norepinephrine ratio, mesenteric artery: 3.0 mg/kg
[1]; only at this dose
  dose with significant increase in dopamine/norepinephrine ratio, cerebral cortex: 100 mg/kg
mice
  acute toxicity: Clinical signs of toxicity and death occurred at 1000 and 2500 mg/kg
[2]; 10 mg/kg oral
  decrease in heart rate: 9.8%
  maximal decrease in mean blood pressure: 53±4 mmHg
  reduction in mean blood pressure relative to vehicle control: 33%
[2]; 10 mg/kg, 4 hours after dosing
  decrease in pressure: −46 mmHg
[2]; 30 mg/kg oral
  decrease in heart rate: 10.5%
[2]; acute oral administration
  duration of antihypertensive effects: > 4 h
[2]; oral dosing
  time to plateau of antihypertensive response: 3 to 4 h
[3]
  renal blood flow, urine production, urinary sodium and potassium excretion: did not lower renal blood flow or alter urine production or urinary excretion of sodium or potassium
[3]; 3 hour period
  mean arterial pressure: decreased mean arterial pressure
Parkinsonian symptoms; 1, 4, 10 mg/kg/day, 12 days, non-pairwise
  CRS / parkinsonian symptoms compared to placebo: no detectable differences; also recorded: no significant effect
Parkinsonian symptoms; nepicastat 4 and 10 mg/kg/day, pairwise
  CRS / parkinsonian symptoms compared to post-MPTP (pre-treatment) state: significant improvement; also recorded: significant effect
Blood pressure
  decrease in pressure: −13 mmHg
